Results on 1 molecule are retold here after ChEMBL document CHEMBL6103622 (J Med Chem, 2025).

Activity calls are given as the source filed them. No cut-off for these calls is given here.

For data set [1], the system named is MC-38. Put plainly: Induction of apoptosis in mouse MC38 cells cocultured with condition medium of M2 macrophages assessed as early apoptotic cells at 30 nM by Annexin V/PI staining based flow cytometric analysis (reference value: 3.16 %). It counts as functional.
The nature of data set [2]: Cmax in Sprague-Dawley rat at 10 mg/kg, po. To be noted: in vivo. The class given is ADME, organism-based.
Data set [3] can be described thus: Terminal half-life in Sprague-Dawley rat at 1 mg/kg, iv. It counts as ADME, organism-based. To be noted: in vivo, read-out: beta t1/2 (converted).
Data set [4] relates to MC-38. Put plainly: Antitumor activity against mouse MC38 cells allografted in C57BL/6 mouse model assessed as upregulation of Il1 mRNA expression in tumor at 10 to 20 mg/kg, ip administered once daily for 14 days by qPCR analysis. The class given is functional, organism-based. To be noted: dose 10-20 mg/kg, time 14.0 day.
In data set [5] the target is T1, Macrophage colony-stimulating factor 1 receptor (Homo sapiens, UniProt P07333). Put plainly: Inhibition of CSF-1R (unknown origin) at 1 uM.
Data set [6] deals with MC-38. The data set can be described thus: Antitumor activity against mouse MC38 cells allografted in C57BL/6 mouse model assessed as upregulation of Il6 mRNA expression in tumor at 10 to 20 mg/kg, ip administered once daily for 14 days by qPCR analysis. It counts as functional, organism-based. To be noted: dose 10-20 mg/kg, time 14.0 day.
In data set [7] the test system is MC-38. Put plainly: Antitumor activity against mouse MC38 cells allografted in C57BL/6 mouse model assessed as downregulation of Chil3l mRNA expression in tumor at 10 to 20 mg/kg, ip administered once daily for 14 days by qPCR analysis. The class given is functional, organism-based. The note with it: dose 10-20 mg/kg, time 14.0 day. (Real-time PCR tracks product formation cycle by cycle.)

Data set [8] concerns MC-38. The data set can be described thus: Antitumor activity against mouse MC38 cells allografted in C57BL/6 mouse model assessed as reduction in tumor weight at 20 mg/kg, ip administered once daily for 14 days relative to control. The class given is functional. Also on record: scale not given: the % may be the effect or the level left. To be noted: time 14 day.
The test system of data set [9] is BMDM. Put plainly: Induction of repolarization of M2 like macrophage into M1 phenotype in female C57BL/6 mouse BMDM cells assessed as decrease in Mrc1 mRNA expression at 10 to 100 nM stimulated with mouse IL4/IL-13 for 24 hrs followed by compound addition and measured after 24 hrs by qPCR analysis. It counts as functional, cell-based. To be noted: dose 10-100 nM.

Data set [10] deals with MC-38. Put plainly: Inhibition of cell viability in mouse MC38 cells cocultured with condition medium of M2 macrophages at 10 to 100 nM by MTT assay. To be noted: dose 10-100 nM. It counts as functional, cell-based. For orientation: Formazan colour is commonly taken as a measure of viable cells.
The target in data set [11] is T2, Macrophage colony-stimulating factor 1 receptor (Mus musculus) (UniProt P09581).
T2 sequence (whole entry): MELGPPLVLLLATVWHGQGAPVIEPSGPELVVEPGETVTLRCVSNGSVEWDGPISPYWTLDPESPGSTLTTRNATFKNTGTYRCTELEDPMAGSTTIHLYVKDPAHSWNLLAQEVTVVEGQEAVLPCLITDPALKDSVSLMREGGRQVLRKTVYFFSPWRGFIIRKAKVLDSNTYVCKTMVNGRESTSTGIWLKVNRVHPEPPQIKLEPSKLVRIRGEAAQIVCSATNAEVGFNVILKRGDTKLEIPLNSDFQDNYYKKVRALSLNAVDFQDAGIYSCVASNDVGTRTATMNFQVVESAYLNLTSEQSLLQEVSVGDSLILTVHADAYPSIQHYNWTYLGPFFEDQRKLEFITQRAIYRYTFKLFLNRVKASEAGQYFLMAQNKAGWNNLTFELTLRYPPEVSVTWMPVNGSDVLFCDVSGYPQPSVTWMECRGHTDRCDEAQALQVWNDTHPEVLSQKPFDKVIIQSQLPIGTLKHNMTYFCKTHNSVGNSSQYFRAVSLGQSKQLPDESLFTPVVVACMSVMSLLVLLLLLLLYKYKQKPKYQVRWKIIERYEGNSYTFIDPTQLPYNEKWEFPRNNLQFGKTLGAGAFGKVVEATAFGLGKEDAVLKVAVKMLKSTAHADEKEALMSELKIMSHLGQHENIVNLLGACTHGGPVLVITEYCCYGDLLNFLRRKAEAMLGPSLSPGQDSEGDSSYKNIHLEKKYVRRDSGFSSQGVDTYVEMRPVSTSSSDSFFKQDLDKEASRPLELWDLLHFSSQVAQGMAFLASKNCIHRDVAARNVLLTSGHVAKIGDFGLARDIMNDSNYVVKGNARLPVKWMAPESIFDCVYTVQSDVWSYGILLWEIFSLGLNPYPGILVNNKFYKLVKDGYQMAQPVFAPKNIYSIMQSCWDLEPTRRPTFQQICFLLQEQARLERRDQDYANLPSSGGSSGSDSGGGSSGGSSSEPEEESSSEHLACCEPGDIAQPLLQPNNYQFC
The data set can be described thus: Binding affinity to CSF-1R in female C57BL/6 mouse BMDM cells assessed as decrease in protein solubility at 100 nM incubated for 1 hrs in presence of 7 to 15 % of acetone/ethanol/acetic acid mixture by SIP assay. It counts as cell-based.

The subject of data set [12] is MC-38. Put plainly: Induction of apoptosis in mouse MC38 cells assessed as early apoptotic cells at 100 nM by Annexin V/PI staining based flow cytometric analysis (reference value: 1.91 %). The class given is functional. Background: In flow cytometry, cells or beads pass a laser one at a time.
Data set [13] relates to BMDM. Put plainly: Induction of repolarization of M2 like macrophage into M1 phenotype in female C57BL/6 mouse BMDM cells assessed as decrease in number of M2 macrophages by measuring reduction in CD206 expression at 10 to 100 nM stimulated with mouse IL4/IL-13 for 24 hrs followed by compound addition and measured after 24 hrs by immunofluorescence analysis. The class given is functional, cell-based. The note with it: dose 10-100 nM.

Data set [14] deals with NT-3 growth factor receptor (Homo sapiens) (UniProt Q16288). The data set can be described thus: Inhibition of TRKC (unknown origin) at 1 uM.
The test system of data set [15] is MC-38. Put plainly: Induction of apoptosis in mouse MC38 cells assessed as early apoptotic cells at 30 nM by Annexin V/PI staining based flow cytometric analysis (reference value: 1.91 %). It counts as functional.
Data set [16] deals with T1, Macrophage colony-stimulating factor 1 receptor. Put plainly: Binding affinity to recombinant CSF-1R (unknown origin) assessed as dissociation rate constant by SPR analysis.
Data set [17] relates to BMDM. The data set can be described thus: Induction of repolarization of M2 like macrophage into M1 phenotype in female C57BL/6 mouse BMDM cells assessed as increase in Il6 mRNA expression at 10 to 100 nM stimulated with mouse IL4/IL-13 for 24 hrs followed by compound addition and measured after 24 hrs by qPCR analysis. The note with it: dose 10-100 nM. The class given is functional, cell-based.

For data set [18], the system named is MC-38. The data set can be described thus: Antitumor activity against mouse MC38 cells allografted in C57BL/6 mouse model assessed as upregulation of Tnf mRNA expression in tumor at 10 to 20 mg/kg, ip administered once daily for 14 days by qPCR analysis. To be noted: dose 10-20 mg/kg, time 14.0 day. It counts as functional, organism-based.
The test system of data set [19] is MC-38. Put plainly: Inhibition of cell viability in mouse MC38 cells at 10 to 100 nM by MTT assay. It counts as functional, cell-based. To be noted: dose 10-100 nM.
The test system of data set [20] is Colorectal cancer organoid. The data set can be described thus: Antitumor activity against patient derived CRC organoids assessed as reduction in number of organoids at 10 to 100 nM incubated for 72 hrs. The class given is functional, tissue-based. The note with it: Homo sapiens, Colorectum, dose 10-100 nM.
Data set [21] relates to BMDM. The data set can be described thus: Induction of repolarization of M2 like macrophage into M1 phenotype in female C57BL/6 mouse BMDM cells assessed as increase in Tnf mRNA expression at 10 to 100 nM stimulated with mouse IL4/IL-13 for 24 hrs followed by compound addition and measured after 24 hrs by qPCR analysis. The note with it: dose 10-100 nM. It counts as functional, cell-based.

Data set [22] deals with MC-38. Put plainly: Induction of apoptosis in mouse MC38 cells assessed as early apoptotic cells at 10 nM by Annexin V/PI staining based flow cytometric analysis (reference value: 1.91 %). It counts as functional.

T1 sequence (P07333 whole entry): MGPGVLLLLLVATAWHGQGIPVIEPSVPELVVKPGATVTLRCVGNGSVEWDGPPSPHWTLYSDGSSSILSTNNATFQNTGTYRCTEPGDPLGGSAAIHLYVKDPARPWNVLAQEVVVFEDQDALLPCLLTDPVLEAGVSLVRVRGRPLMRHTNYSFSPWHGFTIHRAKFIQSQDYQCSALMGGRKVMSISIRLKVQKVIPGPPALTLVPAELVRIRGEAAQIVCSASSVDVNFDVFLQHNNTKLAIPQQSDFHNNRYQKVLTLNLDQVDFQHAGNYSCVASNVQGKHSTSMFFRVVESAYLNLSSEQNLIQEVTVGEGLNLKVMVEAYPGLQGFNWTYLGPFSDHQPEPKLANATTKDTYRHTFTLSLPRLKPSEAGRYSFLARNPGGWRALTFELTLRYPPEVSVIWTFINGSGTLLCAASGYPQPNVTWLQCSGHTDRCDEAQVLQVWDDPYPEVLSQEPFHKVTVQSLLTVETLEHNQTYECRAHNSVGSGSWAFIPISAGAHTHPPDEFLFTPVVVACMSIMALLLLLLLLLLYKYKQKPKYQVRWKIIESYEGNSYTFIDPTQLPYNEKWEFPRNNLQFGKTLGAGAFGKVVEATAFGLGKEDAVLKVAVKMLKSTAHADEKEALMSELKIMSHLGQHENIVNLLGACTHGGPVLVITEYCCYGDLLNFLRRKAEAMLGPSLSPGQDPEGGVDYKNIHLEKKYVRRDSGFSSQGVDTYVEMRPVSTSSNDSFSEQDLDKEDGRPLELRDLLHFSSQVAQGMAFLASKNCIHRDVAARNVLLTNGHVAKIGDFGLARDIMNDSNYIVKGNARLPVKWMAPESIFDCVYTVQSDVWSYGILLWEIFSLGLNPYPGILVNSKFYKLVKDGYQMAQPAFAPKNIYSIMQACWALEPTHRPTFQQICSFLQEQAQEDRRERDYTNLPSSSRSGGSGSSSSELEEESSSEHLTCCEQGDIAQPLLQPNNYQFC
NT-3 growth factor receptor (Homo sapiens), sequence (Q16288 32-839 limits assumed): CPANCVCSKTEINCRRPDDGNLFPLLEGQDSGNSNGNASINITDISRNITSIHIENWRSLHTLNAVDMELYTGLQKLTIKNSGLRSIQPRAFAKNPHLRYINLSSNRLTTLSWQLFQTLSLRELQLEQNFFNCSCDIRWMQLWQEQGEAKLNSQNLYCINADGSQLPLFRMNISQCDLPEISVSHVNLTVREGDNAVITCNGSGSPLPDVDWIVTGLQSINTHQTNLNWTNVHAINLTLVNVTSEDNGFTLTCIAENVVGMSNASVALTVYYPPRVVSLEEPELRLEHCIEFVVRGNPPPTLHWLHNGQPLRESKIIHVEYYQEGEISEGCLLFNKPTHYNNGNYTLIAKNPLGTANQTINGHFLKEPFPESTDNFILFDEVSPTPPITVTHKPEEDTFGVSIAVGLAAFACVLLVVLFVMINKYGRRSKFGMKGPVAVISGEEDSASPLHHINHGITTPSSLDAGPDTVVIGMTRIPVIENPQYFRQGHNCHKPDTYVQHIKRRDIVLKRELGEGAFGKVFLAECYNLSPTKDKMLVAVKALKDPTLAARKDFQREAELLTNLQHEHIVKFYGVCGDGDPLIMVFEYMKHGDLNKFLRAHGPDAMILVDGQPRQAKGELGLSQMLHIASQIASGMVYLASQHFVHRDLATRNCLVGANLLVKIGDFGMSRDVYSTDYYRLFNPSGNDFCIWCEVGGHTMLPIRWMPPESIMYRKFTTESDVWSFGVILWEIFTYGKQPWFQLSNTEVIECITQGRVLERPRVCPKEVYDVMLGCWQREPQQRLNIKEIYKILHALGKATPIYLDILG

For orientation: Cmax means the maximum level reached in the sampled fluid or tissue. The term koff denotes the rate constant with which the complex falls apart. On to `Cc1nc(NC(=O)N[C@@H]2CCCC[C@H]2O)ccc1Oc1c[nH]c2ncc(Cl)cc12`, for which the Activity was determined as 13.61% in the data set on MC-38 [1]; 56% in the data set with MC-38 [8]; 2.03% with MC-38 [12]; 1.71% with MC-38 [15]; 1.96% in the data set with MC-38 [22]. The Cmax in [2] amounted to 1580 ng/mL. Besides, the half-life in data set [3] is 1.2 h. Further, the result (in the data set with MC-38 [4]; in the data set with MC-38 [6]; with MC-38 [7]; in the data set on BMDM [9]; in data set [11]; in the data set on BMDM [13]) was Active. Also, the result with BMDM [17], with MC-38 [18] and with BMDM [21] was Active. Besides, the inhibition entry (in data set [5]; in the data set with MC-38 [10]; in [14]) was “Active” each time. For the same molecule, in [16], the koff stood at 0.00315 s⁻¹. Besides, the inhibition entry in the data set on MC-38 [19] is given as “Minimal_effect”. Further, the outcome in [20] was inactive.
